The results in this text go back to US20160136108A1, “HYDROXYTYROSOL COMPOSITIONS FOR TREATMENT OF CARTILAGE INJURIES IN JOINTS” (DSM IP ASSETS B.V., priority 2007, published 2016).

Holding throughout (format): cell-based
Assay [1] relates to human SOX-5. As to the kind of experiment: Anabolic gene expression by quantitative real-time PCR in normal human primary chondrocytes: SOX-5. The settings on record: normal human primary chondrocytes (HNAC-kn); 4 hours. Here is the method:
(§1) […] These primary chondrocytes were passaged in vitro not more than 4 times, before being used for experiments. Cells were cultured in chondrocyte differentiation medium (Cambrex, #CC-3225) without or with substances for 4 hours. Total RNA was extracted from cultured cells and reverse-transcribed as described by Richard et al. Mol. Nutr. Food Res. 49, 431-442, 2005. Expression levels of distinct genes were determined by quantitative real-time PCR as detailed in Richard et al. Mol. Nutr. Food Res. 49, 431-442, 2005.

Assay [2] relates to Human IL-R antagonist. As to the kind of experiment: Anti-catabolic gene expression by quantitative real-time PCR in normal human primary chondrocytes: IL-R antagonist. The settings on record: normal human primary chondrocytes (HNAC-kn); 4 hours. The protocol: as §1
Assay [3] relates to human COL2A1. Put plainly: Anabolic gene expression by quantitative real-time PCR in normal human primary chondrocytes: COL2A1. Here is the method: as §1
For assay [4], the system named is human aggrecan. As to the kind of experiment: Anabolic gene expression by quantitative real-time PCR in normal human primary chondrocytes: aggrecan. Here is the method: as §1
Assay [5] deals with human SOX-6. As to the kind of experiment: Anabolic gene expression by quantitative real-time PCR in normal human primary chondrocytes: SOX-6. The settings on record: normal human primary chondrocytes (HNAC-kn); 4 hours. The protocol: as §1
[6] abbreviates: 12.5 microM OH-Tyrosol, normal human primary chondrocytes (HNAC-kn), 4 hours.
Setting [7] is: in words, normal human primary chondrocytes.

In the case of `OCCc1ccc(O)c(O)c1` [OH-Tyrosol, 4-(2-hydroxylethyl)-1,2-benzenediol], the “level of gene expression, human SOX-5” value in assay [1] is given as 130 % of control-treated cells. In addition, the “level of gene expression, Human IL-R antagonist” value in assay [2] is 113 % of control-treated cells. Besides, the “level of gene expression, human COL2A1” value in assay [3] (setting [6]) is listed as 247 % of control-treated cells. Moreover, the “effect of compounds on gene expression, human COL2A1 (collagen II)” value in assay [3] (setting [7]) is “substantially increased”. In addition, the “level of gene expression, human aggrecan” value in assay [4] (setting [6]) is on record as 125 % of control-treated cells. For the same compound, the “effect of compounds on gene expression, human aggrecan” value in assay [4] (setting [7]) is listed as “substantially increased”. The “level of gene expression, human SOX-6” value in assay [5] was 127 % of control-treated cells.
